Data taken from US20100168125A1, “INDOLIZINES AND AZA-ANALOG DERIVATIVES THEREOF AS CNS ACTIVE COMPOUNDS” (priority 2007, published 2010).
Read-outs that look alike come from different tables or passages of the source.

How the values were obtained:
[1] = biological target: dopamine D2short receptor (Homo sapiens, UniProt P14416); test: [^35S]GTPγS-incorporation assay, intrinsic activity
human D2long receptor = biological target: T1, human D2long receptor (Homo sapiens, UniProt P14416); test: radioligand binding with [^3H]spiperone, D2long; conditions: read-out: Ki D2lo
T1 construct: expressed in transfected cells; host or cells: Chinese hamster ovary (CHO) cells, membranes
T1 sequence (P14416 whole entry): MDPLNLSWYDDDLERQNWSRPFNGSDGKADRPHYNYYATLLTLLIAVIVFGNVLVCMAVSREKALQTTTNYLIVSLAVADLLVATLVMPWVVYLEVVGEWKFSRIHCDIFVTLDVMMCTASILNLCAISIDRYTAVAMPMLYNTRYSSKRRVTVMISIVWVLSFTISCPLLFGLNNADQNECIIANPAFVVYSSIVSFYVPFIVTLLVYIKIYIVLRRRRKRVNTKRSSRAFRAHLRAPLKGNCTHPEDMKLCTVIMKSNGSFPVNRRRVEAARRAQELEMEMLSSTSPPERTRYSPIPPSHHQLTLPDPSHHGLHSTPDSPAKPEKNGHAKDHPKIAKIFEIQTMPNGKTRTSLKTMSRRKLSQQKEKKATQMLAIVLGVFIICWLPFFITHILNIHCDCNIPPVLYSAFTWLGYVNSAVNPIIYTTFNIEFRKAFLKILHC
Experimental: (§1) For the determination of binding affinity to the receptors of the dopamine D2 family membranes were established carrying the human D2long, D2short, D3 or D4.4 receptor subtype expressed in Chinese hamster ovary cell lines. In principle, the binding experiments started when incubating an appropriate amount of membrane with the radioligand [^3H]spiperone and the particular test compounds diluted in a wide range of different concentrations from subnanomolar up to micromolar.

5-HT1A receptor = biological target: T2, 5-HT1A receptor (Sus scrofa, UniProt A0A4X1UTF5); test: radioligand binding, porcine cortical membranes, [^3H]8-OH-DPAT and [^3H]WAY 100635
T2 construct: membrane preparations from porcine cortical material; from tissue; host or cells: porcine cerebral cortex membranes
T2 sequence (A0A4X1UTF5 1-422): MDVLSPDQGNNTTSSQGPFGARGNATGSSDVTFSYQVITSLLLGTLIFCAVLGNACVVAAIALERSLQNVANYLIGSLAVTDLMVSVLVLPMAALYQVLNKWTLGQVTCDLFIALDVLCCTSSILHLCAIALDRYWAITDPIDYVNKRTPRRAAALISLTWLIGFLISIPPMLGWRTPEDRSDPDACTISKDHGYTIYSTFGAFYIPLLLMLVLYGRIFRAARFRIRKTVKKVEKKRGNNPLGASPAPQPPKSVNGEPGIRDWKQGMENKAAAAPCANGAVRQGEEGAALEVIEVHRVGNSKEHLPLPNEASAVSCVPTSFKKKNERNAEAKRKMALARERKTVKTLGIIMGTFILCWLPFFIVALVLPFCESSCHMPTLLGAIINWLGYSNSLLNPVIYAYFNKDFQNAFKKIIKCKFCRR

human D2short receptor = biological target: T3, human D2short receptor (Homo sapiens, UniProt P14416); test: radioligand binding with [^3H]spiperone, D2short; conditions: read-out: Ki D2sh
T3 construct: expressed in transfected cells; host or cells: Chinese hamster ovary (CHO) cells, membranes
T3 sequence (P14416 1-414 isoform P14416-2): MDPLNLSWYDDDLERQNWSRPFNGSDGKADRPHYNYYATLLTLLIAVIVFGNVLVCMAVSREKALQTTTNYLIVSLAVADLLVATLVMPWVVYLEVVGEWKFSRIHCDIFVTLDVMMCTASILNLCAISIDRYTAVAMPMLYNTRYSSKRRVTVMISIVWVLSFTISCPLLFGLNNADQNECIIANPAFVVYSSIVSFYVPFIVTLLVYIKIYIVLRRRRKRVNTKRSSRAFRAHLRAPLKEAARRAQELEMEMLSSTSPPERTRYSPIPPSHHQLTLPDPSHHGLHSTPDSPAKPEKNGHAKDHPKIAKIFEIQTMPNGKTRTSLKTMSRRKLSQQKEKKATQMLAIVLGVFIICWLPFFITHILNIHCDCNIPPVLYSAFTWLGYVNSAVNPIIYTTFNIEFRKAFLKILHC
Experimental: as §1

human D4.4 receptor = biological target: T4, human D4.4 receptor (Homo sapiens, UniProt P21917); test: radioligand binding with [^3H]spiperone, D4.4
T4 construct: expressed in transfected cells; host or cells: Chinese hamster ovary (CHO) cells, membranes
T4 sequence (P21917 1-419): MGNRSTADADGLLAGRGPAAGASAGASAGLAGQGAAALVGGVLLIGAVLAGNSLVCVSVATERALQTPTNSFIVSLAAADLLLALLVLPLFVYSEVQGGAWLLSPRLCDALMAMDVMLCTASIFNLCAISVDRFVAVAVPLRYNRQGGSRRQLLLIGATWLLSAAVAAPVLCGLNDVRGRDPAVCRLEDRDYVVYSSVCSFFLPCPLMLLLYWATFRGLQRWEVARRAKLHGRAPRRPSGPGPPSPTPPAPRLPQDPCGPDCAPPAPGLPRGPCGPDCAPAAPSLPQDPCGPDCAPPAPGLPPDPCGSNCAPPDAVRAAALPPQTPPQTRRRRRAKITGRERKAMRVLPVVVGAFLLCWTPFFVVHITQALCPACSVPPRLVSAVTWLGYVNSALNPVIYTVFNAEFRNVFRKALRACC
Experimental: as §1

5-HT2 receptor = biological target: T5, 5-HT2 receptor (Sus scrofa, UniProt P50129); test: radioligand binding, porcine cortical membranes, [^3H]ketanserin
T5 construct: membrane preparations from porcine cortical material; from tissue; host or cells: porcine cerebral cortex membranes
T5 sequence (P50129 whole entry): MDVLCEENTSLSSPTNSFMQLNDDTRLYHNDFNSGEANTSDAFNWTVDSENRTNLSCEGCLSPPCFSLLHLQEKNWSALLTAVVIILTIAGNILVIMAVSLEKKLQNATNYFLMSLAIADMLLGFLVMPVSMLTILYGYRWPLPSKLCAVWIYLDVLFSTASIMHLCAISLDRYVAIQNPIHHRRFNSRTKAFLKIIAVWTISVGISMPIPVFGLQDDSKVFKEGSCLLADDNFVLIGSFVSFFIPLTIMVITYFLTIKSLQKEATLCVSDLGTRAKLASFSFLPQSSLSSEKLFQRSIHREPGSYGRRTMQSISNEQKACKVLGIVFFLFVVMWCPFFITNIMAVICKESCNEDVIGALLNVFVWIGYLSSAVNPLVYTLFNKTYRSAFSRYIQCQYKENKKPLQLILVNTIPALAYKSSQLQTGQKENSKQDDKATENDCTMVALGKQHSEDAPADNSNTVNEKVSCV

human D3 receptor = biological target: T6, human D3 receptor (Homo sapiens, UniProt P35462); test: radioligand binding with [^3H]spiperone, D3
T6 construct: expressed in transfected cells; host or cells: Chinese hamster ovary (CHO) cells, membranes
T6 sequence (P35462 whole entry): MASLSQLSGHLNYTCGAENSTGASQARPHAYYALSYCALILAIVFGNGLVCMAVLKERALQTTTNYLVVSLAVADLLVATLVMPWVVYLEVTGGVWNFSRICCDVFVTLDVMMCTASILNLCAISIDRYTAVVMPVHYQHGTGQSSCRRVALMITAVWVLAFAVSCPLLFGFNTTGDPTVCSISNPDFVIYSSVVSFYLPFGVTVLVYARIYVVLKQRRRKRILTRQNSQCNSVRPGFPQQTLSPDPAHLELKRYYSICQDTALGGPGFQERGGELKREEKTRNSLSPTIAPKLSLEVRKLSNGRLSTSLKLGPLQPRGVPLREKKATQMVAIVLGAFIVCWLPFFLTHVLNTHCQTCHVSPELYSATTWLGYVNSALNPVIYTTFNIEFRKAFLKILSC
Experimental: as §1

[2] = read-out: D2short: [^35S]GTPγS intrinsic activity, % activity of quinpirol
[3] = [^3H]spiperone, CHO membranes, mean of 2 to 4 experiments
[4] = ether alkylene linker compounds
[5] = porcine cortical membranes, [^3H]ketanserin
[6] = read-out: D2short: [^35S]GTPγS intrinsic activity

dopamine D2short receptor, sequence (P14416 1-414 isoform P14416-2): as the sequence (P14416 1-414 isoform P14416-2) above

SMILES | Emax [1, 2] [%] | Ki (human D2long receptor; [3]) [µM] | Ki (human D2long receptor; [4]) [µM] | Ki (5-HT1A receptor; [4]) [µM] | Ki (5-HT1A receptor; porcine cortical membranes) [µM] | Ki (human D2short receptor; [3]) [µM] | Ki (human D2short receptor; [4]) [µM] | Ki (human D4.4 receptor; [3]) [µM] | Ki (human D4.4 receptor; [4]) [µM] | melting point [°C] | Ki (5-HT2 receptor; [4]) [µM] | Ki (5-HT2 receptor; [5]) [µM] | Ki (human D3 receptor; [3]) [µM] | Ki (human D3 receptor; [4]) [µM] | Emax [1, 6] [%]
Clc1cccc(N2CCN(CCCCOc3cc4ccccn4n3)CC2)c1Cl [Example E1, 2-[4-[4-(2,3-Dichlorophenyl)piperazin-1-yl]butoxy]pyrazolo[1,5-a]pyridine] | < 15 | < 0.03 | 0.0094 | 0.017 | < 0.03 | < 0.03 | 0.01 | 0.03 to 0.3 | 0.033 | 161 | 0.15 | 0.03 to 0.3 | < 0.03 | 0.0035 | –
O=Cc1c(OCCCCN2CCN(c3cccc(Cl)c3Cl)CC2)nn2ccccc12 [Example E4, 2-[4-[4-(2,3-Dichlorophenyl)piperazin-1-yl]butoxy]pyrazolo[1,5-a]pyridine-3-carbaldehyde] | 15 to 40 | < 0.03 | – | – | < 0.03 | < 0.03 | – | < 0.03 | – | 100 | – | 0.03 to 0.3 | < 0.03 | – | –
COc1ccccc1N1CCN(CCCCOc2nn3ccccc3c2C=O)CC1 [Example E5, 2-[4-[4-(2-Methoxyphenyl)piperazin-1-yl]butoxy]pyrazolo[1,5-a]pyridine-3-carbaldehyde] | – | < 0.03 | – | – | < 0.03 | < 0.03 | – | < 0.03 | – | 101 | – | 0.301 to 3 | < 0.03 | – | 15 to 40
O=Cc1c(OCCCCN2CCN(c3ccccc3Cl)CC2)nn2ccccc12 [Example E6, 2-[4-[4-(2-Chlorophenyl)piperazin-1-yl]butoxy]pyrazolo[1,5-a]pyridine-3-carbaldehyde] | – | < 0.03 | – | – | < 0.03 | 0.03 to 0.3 | – | 0.03 to 0.3 | – | 104 | – | 0.301 to 3 | < 0.03 | – | 15 to 40
Clc1cccc(N2CCN(CCCCOc3cccn4nccc34)CC2)c1Cl [Example E7, 4-[4-[4-(2,3-Dichlorophenyl)piperazin-1-yl]butoxy]pyrazolo[1,5-a]pyridine] | < 15 | < 0.03 | – | – | 0.03 to 0.3 | < 0.03 | – | < 0.03 | – | 91 | – | 0.301 to 3 | < 0.03 | – | –
COc1ccccc1N1CCN(CCCCOc2cccn3nccc23)CC1 [Example E8, 4-[4-[4-(2-Methoxyphenyl)piperazin-1-yl]butoxy]pyrazolo[1,5-a]pyridine] | < 15 | < 0.03 | – | – | < 0.03 | < 0.03 | – | < 0.03 | – | 74 | – | 0.301 to 3 | < 0.03 | – | –
Clc1ccccc1N1CCN(CCCCOc2cccn3nccc23)CC1 [Example E9, 4-[4-[4-(2-Chlorophenyl)piperazin-1-yl]butoxy]pyrazolo[1,5-a]pyridine] | – | < 0.03 | – | – | < 0.03 | < 0.03 | – | < 0.03 | – | 88 | – | 0.301 to 3 | < 0.03 | – | < 15
O=Cc1cnn2cccc(OCCCCN3CCN(c4cccc(Cl)c4Cl)CC3)c12 [Example E10, 4-[4-[4-(2,3-Dichlorophenyl)piperazin-1-yl]butoxy]pyrazolo[1,5-a]pyridine-3-carbaldehyde] | – | < 0.03 | – | – | 0.03 to 0.3 | < 0.03 | – | 0.03 to 0.3 | – | 128 | – | 0.03 to 0.3 | < 0.03 | – | 15 to 40
COc1ccccc1N1CCN(CCCCOc2cccn3ncc(C=O)c23)CC1 [Example E11, 4-[4-[4-(2-Methoxyphenyl)piperazin-1-yl]butoxy]pyrazolo[1,5-a]pyridine-3-carbaldehyde] | < 15 | < 0.03 | – | – | < 0.03 | < 0.03 | – | < 0.03 | – | 139 | – | 0.301 to 3 | 0.03 to 0.3 | – | –
Clc1ccccc1N1CCN(CCCCOc2ccn3ncc(Br)c3c2)CC1 [Example E44, 3-Bromo-5-[4-[4-(2-chlorophenyl)piperazin-1-yl]butoxy]pyrazolo[1,5-a]pyridine] | – | – | – | – | – | – | – | – | – | 84 | – | – | – | – | 15 to 40
Clc1ccccc1N1CCN(CCCCOc2ccn3ncc(I)c3c2)CC1 [Example E50, 5-[4-[4-(2-Chlorophenyl)piperazin-1-yl]butoxy]-3-iodo-pyrazolo[1,5-a]pyridine] | – | – | – | – | 0.03 to 0.3 | – | – | – | – | 94 | – | 0.301 to 3 | – | – | –
Clc1cccc(N2CCN(CCCCOc3ccn4nnnc4c3)CC2)c1Cl [Example E63, 7-[4-[4-(2,3-Dichlorophenyl)piperazin-1-yl]butoxy]tetrazolo[1,5-a]pyridine] | – | < 0.03 | – | – | 0.03 to 0.3 | < 0.03 | – | < 0.03 | – | 138 | – | 0.03 to 0.3 | < 0.03 | – | –
O=[N+]([O-])c1cccc(N2CCN(CCCCOc3ccn4nccc4c3)CC2)c1 [Example E65, 5-[4-[4-(3-Nitrophenyl)piperazin-1-yl]butoxy]pyrazolo[1,5-a]pyridine] | – | – | – | – | – | – | – | – | – | 73 | – | – | – | – | –
Nc1cccc(N2CCN(CCCCOc3ccn4nccc4c3)CC2)c1 [Example E66, 5-[4-[4-(3-Aminophenyl)piperazin-1-yl]butoxy]pyrazolo[1,5-a]pyridine] | – | – | – | – | – | – | – | – | – | 86 | – | – | – | – | –
COc1ccccc1N1CCN(CCCCOc2ccn3ncc(CO)c3c2)CC1 [Example E72] | 15 to 40 | < 0.03 | – | – | < 0.03 | < 0.03 | – | < 0.03 | – | – | – | 0.301 to 3 | < 0.03 | – | –
COc1ccccc1N1CCN(CCCCOc2ccn3ncc(C)c3c2)CC1 [Example E75, 5-[4-[4-(2-Methoxyphenyl)piperazin-1-yl]butoxy]-3-methylpyrazolo[1,5-a]pyridine] | < 15 | < 0.03 | – | – | < 0.03 | < 0.03 | – | < 0.03 | – | – | – | 0.301 to 3 | < 0.03 | – | –
COc1ccccc1N1CCN(CCCCOc2ccn3ncc(CN)c3c2)CC1 [Example E78, 3-Aminomethyl-5-[4-[4-(2-methoxyphenyl)piperazin-1-yl]butoxy]pyrazolo[1,5-a]pyridine] | 15 to 40 | < 0.03 | – | – | < 0.03 | < 0.03 | – | < 0.03 | – | – | – | 0.301 to 3 | < 0.03 | – | –
COc1ccccc1N1CCN(CCCCOc2ccn3ncc(CNC(C)=O)c3c2)CC1 [Example E81] | < 15 | < 0.03 | – | – | < 0.03 | < 0.03 | – | 0.03 to 0.3 | – | – | – | 0.301 to 3 | < 0.03 | – | –
COc1ccccc1N1CCN(CCCCOc2ccn3nnnc3c2)CC1 [Example E97, 7-[4-[4-(2-Methoxyphenyl)piperazin-1-yl]butoxy]tetrazolo[1,5-a]pyridine] | – | < 0.03 | – | – | < 0.03 | < 0.03 | – | < 0.03 | – | 124 | – | > 3 | < 0.03 | – | –
Clc1ccccc1N1CCN(CCCCOc2ccn3nnnc3c2)CC1 [Example E98, 7-[4-[4-(2-Chlorophenyl)piperazin-1-yl]butoxy]tetrazolo[1,5-a]pyridine] | – | < 0.03 | – | – | < 0.03 | < 0.03 | – | < 0.03 | – | 101 | – | 0.301 to 3 | < 0.03 | – | –
